Laboratory results taken from paper PMC10782944 (Science immunology, 2023).

Experiments:
10LH = assay: SPR of peptide-loaded HLA-A*24:02 flowed over 10LH-biotin on a streptavidin chip; assay type: binding; details: peptide loaded on HLA-A*24:02
HLA-B*08:01 = HLA-B*08:01 (Homo sapiens, UniProt P01889, A93T/A95T/D138N/E176V/E187T/K202T/Q94N/R180D/S35A/V36M/Y33D/Y91F); assay: pHLA complex formation of PHOX2B peptide with HLA-B*08:01; details: HLA-B*08:01, despite NetMHCpan 4.1 prediction

formation of stable complexes with the HLA (HLA-B*08:01) | Sequence | dissociation rate (qualitative) (10LH)
 | LYLPVRVLI [ATG2A] | slow dissociation rate
did not form stable complexes | QYNPIRTTF [PHOX2B] | 
